# Target: T1, Prostaglandin G/H synthase 1 (Mus musculus, UniProt P22437)
# T1 sequence (P22437 whole entry): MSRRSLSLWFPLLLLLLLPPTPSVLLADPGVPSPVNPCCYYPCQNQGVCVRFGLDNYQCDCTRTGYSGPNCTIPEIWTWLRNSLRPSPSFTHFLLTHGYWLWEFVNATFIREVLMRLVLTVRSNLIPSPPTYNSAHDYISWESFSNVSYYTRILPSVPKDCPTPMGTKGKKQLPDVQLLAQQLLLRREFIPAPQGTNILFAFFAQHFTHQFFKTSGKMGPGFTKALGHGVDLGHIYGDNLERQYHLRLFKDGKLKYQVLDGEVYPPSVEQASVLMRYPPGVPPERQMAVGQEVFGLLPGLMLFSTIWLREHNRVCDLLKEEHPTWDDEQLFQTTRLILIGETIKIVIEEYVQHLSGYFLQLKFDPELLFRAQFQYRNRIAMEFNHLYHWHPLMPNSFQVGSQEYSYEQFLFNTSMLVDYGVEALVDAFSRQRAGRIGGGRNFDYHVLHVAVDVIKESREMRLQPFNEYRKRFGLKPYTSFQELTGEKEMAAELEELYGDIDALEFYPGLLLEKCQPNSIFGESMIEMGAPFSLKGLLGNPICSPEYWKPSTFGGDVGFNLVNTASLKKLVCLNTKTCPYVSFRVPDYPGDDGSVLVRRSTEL
# Experiment: Inhibitory activity against Prostaglandin G/H synthase 1 in mice
row,SMILES,IC50 [µM]
1,O=C(/C=C/c1ccco1)c1cccnc1,59.7

# Target: T1, Prostaglandin G/H synthase 1
# Experiment: Inhibitory activity against murine prostaglandin G/H synthase 1.
row,SMILES,IC50 [µM]
1,O=C(/C=C/c1ccccc1)c1ccccn1,32.5
2,O=C(/C=C/c1ccsc1)c1cccs1,59.9
3,O=C(/C=C/c1ccco1)c1ccco1,80.7
4,O=C(/C=C/c1cccs1)c1ccccc1,46.2
5,O=C(/C=C/c1ccoc1)c1cccnc1,21
6,O=C(/C=C/c1ccco1)c1ccccn1,23.6
7,O=C(/C=C/c1ccsc1)c1cccnc1,13
8,O=C(/C=C/c1ccoc1)c1ccccn1,23.6
9,O=C(/C=C/c1ccccn1)c1ccco1,65.3
10,Cc1ccsc1/C=C/C(=O)c1ccccn1,40.1
11,O=C(/C=C/c1ccco1)c1ccc(Cl)s1,57.4
12,O=C(/C=C/c1ccsc1)c1ccccn1,13
13,O=C(/C=C/c1ccco1)c1cccs1,60.7
14,O=C(/C=C/c1cccs1)c1cccs1,9.01
15,O=C(/C=C/c1ccccc1)c1ccccc1 [CHALCONE],22.1
16,CS(=O)(=O)Nc1ccc([N+](=O)[O-])cc1OC1CCCCC1 [NS-398],1.67

# Target: T2, Prostaglandin G/H synthase 2 (Mus musculus, UniProt Q05769)
# T2 sequence (Q05769 whole entry): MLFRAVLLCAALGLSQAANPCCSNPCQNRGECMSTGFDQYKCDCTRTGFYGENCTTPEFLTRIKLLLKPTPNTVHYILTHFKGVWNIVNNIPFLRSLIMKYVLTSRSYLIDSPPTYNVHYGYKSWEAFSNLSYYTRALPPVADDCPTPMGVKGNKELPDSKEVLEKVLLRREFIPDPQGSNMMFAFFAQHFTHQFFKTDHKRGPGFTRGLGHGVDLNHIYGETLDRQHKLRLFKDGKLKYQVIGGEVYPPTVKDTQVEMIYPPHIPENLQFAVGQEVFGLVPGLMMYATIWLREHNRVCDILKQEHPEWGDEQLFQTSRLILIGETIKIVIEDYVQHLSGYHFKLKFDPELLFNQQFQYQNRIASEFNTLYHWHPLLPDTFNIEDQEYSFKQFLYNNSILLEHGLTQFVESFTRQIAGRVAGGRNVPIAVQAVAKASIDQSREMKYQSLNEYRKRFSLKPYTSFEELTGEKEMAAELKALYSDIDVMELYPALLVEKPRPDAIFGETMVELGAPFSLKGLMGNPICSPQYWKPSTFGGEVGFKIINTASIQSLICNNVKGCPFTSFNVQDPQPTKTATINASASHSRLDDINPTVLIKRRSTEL
# Experiment: Inhibitory activity against murine Prostaglandin G/H synthase 2.
row,SMILES,IC50 [µM]
1,O=C(/C=C/c1ccccc1)c1ccccn1,28.7
2,O=C(/C=C/c1ccco1)c1cccnc1,12
3,O=C(/C=C/c1ccsc1)c1cccs1,26.7
4,O=C(/C=C/c1ccco1)c1ccco1,29
5,O=C(/C=C/c1cccs1)c1ccccc1,9.02
6,O=C(/C=C/c1ccoc1)c1cccnc1,7.92
7,O=C(/C=C/c1ccco1)c1ccccn1,7.44
8,O=C(/C=C/c1ccsc1)c1cccnc1,18.4
9,O=C(/C=C/c1ccccn1)c1ccco1,1.89
10,Cc1ccsc1/C=C/C(=O)c1ccccn1,23.4
11,O=C(/C=C/c1ccco1)c1ccc(Cl)s1,14.1
12,O=C(/C=C/c1ccsc1)c1ccccn1,5.22
13,O=C(/C=C/c1ccco1)c1cccs1,13.7
14,O=C(/C=C/c1cccs1)c1cccs1,3.4
15,O=C(/C=C/c1ccccc1)c1ccccc1 [CHALCONE],11.2

# Target: T3, Polyunsaturated fatty acid 5-lipoxygenase (Mus musculus, UniProt P48999)
# T3 sequence (P48999 whole entry): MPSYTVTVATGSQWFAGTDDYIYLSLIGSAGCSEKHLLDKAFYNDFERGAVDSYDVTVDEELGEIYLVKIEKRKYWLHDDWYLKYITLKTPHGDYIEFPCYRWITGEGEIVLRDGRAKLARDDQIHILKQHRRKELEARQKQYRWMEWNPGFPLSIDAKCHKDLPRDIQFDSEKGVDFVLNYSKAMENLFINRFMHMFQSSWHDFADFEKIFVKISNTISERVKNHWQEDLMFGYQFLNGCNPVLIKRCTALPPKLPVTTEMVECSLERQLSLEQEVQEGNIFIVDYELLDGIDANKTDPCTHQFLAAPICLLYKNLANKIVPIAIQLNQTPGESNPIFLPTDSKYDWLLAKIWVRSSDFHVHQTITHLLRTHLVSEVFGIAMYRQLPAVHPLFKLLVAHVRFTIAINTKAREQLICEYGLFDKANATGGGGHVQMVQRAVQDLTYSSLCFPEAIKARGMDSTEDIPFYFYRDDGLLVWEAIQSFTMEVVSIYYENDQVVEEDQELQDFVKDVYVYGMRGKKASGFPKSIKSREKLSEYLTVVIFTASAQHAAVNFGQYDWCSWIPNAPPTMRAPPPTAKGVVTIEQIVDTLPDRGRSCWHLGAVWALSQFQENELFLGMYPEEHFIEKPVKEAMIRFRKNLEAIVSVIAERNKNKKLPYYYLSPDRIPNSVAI
# Experiment: Inhibitory activity against murine […].
row,SMILES,IC50 [µM]
1,O=C(/C=C/c1ccccc1)c1ccccn1,8.13
2,O=C(/C=C/c1ccco1)c1cccnc1,12
3,O=C(/C=C/c1ccsc1)c1cccs1,5.9
4,O=C(/C=C/c1ccco1)c1ccco1,12.8
5,O=C(/C=C/c1cccs1)c1ccccc1,9.5
6,O=C(/C=C/c1ccoc1)c1cccnc1,13.4
7,O=C(/C=C/c1ccco1)c1ccccn1,13.5
8,O=C(/C=C/c1ccoc1)c1ccccn1,13.8
9,O=C(/C=C/c1ccccn1)c1ccco1,0.37
10,Cc1ccsc1/C=C/C(=O)c1ccccn1,6.51
11,O=C(/C=C/c1ccco1)c1ccc(Cl)s1,7.52
12,O=C(/C=C/c1ccsc1)c1ccccn1,7.6
13,O=C(/C=C/c1ccco1)c1cccs1,14
14,O=C(/C=C/c1cccs1)c1cccs1,4.8
15,O=C(/C=C/c1ccccc1)c1ccccc1 [CHALCONE],12.2
16,CC1=C(C)C(=O)C(CCCCC#CCCCC#CCO)=C(C)C1=O [DOCEBENONE],0.032

# Target: T2, Prostaglandin G/H synthase 2
# Experiment: Inhibitory activity against cyclooxygenase-2 in micc
row,SMILES,IC50 [µM]
1,O=C(/C=C/c1ccoc1)c1ccccn1,12

# Target: T3, Polyunsaturated fatty acid 5-lipoxygenase
# Experiment: Inhibitory activity against […] in mice
row,SMILES,IC50 [µM]
1,O=C(/C=C/c1ccsc1)c1cccnc1,10

# Reference: ChEMBL document CHEMBL1146736, “Simple aromatic compounds containing propenone moiety show considerable dual COX/5-LOX inhibitory activities” (Bioorg Med Chem Lett, 2004)
